In ChEMBL document CHEMBL3507680, “University of Dundee, Gates Library screen for HepG2 cell viability”:

Assay: Human HepG2 cell viability assay in 384 well format
Format: toxicity, cell-based
Design: dose 125 nL, time 70.5 hour; cytotoxicity at 70.5 h: concentration not given beside the values
Conditions: HepG2 cells, read-out: Inhibition

| SMILES | cytotoxicity at 70.5 h [%] |
| --- | --- |
| Cc1cc(C#N)ccc1S(=O)(=O)N1CCN(C)Cc2ccccc21 | -0.39 |
| Cc1noc(COCC(=O)Nc2ccc(Br)c(C)n2)n1 | 24.3 |
| Cc1noc(CCCC(=O)Nc2ncccc2Br)n1 | -7.59 |
| CS(=O)(=O)CCOCCNc1ccc2ccc(F)cc2n1 | -3.21 |
| Cc1cc(F)ccc1S(=O)(=O)N1CCN(C)Cc2ccccc21 | -6.39 |
| CCC(C)CN(C)C(=O)NCc1ccccc1-n1cccn1 (centres undefined) | 1.17 |
| Cc1noc(COCC(=O)Nc2ncccc2Br)n1 | 2.34 |
| COCC1CN(C(=O)Nc2ccc(Cl)cc2Cl)CCO1 (centres undefined) | -8.42 |
| CCCN1CCCN(C(=O)C(CC)N2CCCC2=O)CC1 (centres undefined) | -14.5 |
| COCC1CN(C(=O)Nc2cc(Br)ccc2F)CCO1 (centres undefined) | -10.1 |
| COc1cc(F)c(S(=O)(=O)N2CCN(C)Cc3ccccc32)cc1OC | -10.1 |
| CC(=O)NCCC(=O)Nc1sccc1C(=O)C(C)(C)C | 2.44 |
| CS(=O)(=O)NCCC(=O)N1CCN(S(=O)(=O)c2ccc(Br)cc2)CC1 | 6.55 |
| Cc1ccnc(NC(=O)CSCc2cccnc2)c1 | -2.67 |
| Cc1ccc(-n2ncc(C(=O)NC3CCCCC3)c2N)cc1 | -2.62 |
| O=C(NCCc1ccccc1)N1CCC(C2OCCO2)CC1 | -4.29 |
| CN(C)C(=O)CNS(=O)(=O)c1cc(Br)ccc1F | 2.64 |
| CC(O)CNC(=O)NCCCN1CCN(c2ncccn2)CC1 (centres undefined) | -6.22 |
| O=C(c1ccncn1)N1CCC[C@]2(C[C@@H](OCc3ccccn3)CO2)C1 | 10.5 |
| Cc1cc(C(=O)N2CCn3cc(CN4CCCC4)nc3C2)no1 | -13.3 |
| O=C(c1cccc(F)c1)N1CC[C@@H]2CN(c3ncccn3)CCO[C@@H]2C1 | -15.1 |
| O=C(c1cscn1)N1CCc2ncc(CN3CCOCC3)n2CC1 | -15.7 |

| SMILES | cytotoxicity at 70.5 h [%] |
| --- | --- |
| CN(C)Cc1cnc2n1CCN(C(=O)C1CC=CC1)CC2 | -12.7 |
| O=C(C1CCOCC1)N1CCc2ncc(CN3CCCCC3)n2CC1 | -10.2 |
| Cc1ccccc1C(=O)N1CC[C@@H]2CN(c3ncccn3)CCO[C@@H]2C1 | -10.9 |
| O=C([C@H]1CCCO1)N1CCc2ncc(CN3CCOCC3)n2CC1 | -11.9 |
| O=C(Cc1ccc(F)cc1)N1CCn2cc(Cn3cncn3)nc2C1 | -9.64 |
| COc1cccc(CNC(=O)c2nc3c(s2)CCN(C(C)=O)CC3)c1 | -11 |
| Cn1cc(C2COC3(CCN(C(=O)c4ccsc4)CC3)C2)cn1 (centres undefined) | -15.9 |
| CS(=O)(=O)NCc1nnc2n1CCN(Cc1cccnc1)C2 | 18.3 |
| Cc1nc(C(=O)N2CC[C@@]3(C[C@@H](NS(C)(=O)=O)CCO3)C2)cs1 | -5.85 |
| CN1C[C@H]2C[C@H](C(=O)Nc3cccnc3)[C@@H](C1)O2 | -11.1 |
| c1cncc(CN2CCCC3(COCCN(c4cncnc4)C3)C2)c1 (centres undefined) | -6.01 |
| O=C(c1ccncc1)N1C[C@@H]2OCCN(CCN3CCCC3)[C@@H]2C1 | -4.2 |
| Cc1ncoc1C(=O)N1CC[C@@]2(C[C@H](NS(C)(=O)=O)CCO2)C1 | -7.59 |
| Cc1cc(C(=O)N2CC[C@@]3(C[C@@H](NS(C)(=O)=O)CCO3)C2)no1 | -4.95 |
| O=S(=O)(c1ccccc1)N1CCC2(CCCN2Cc2cccc(F)c2)C1 (centres undefined) | 6.89 |
| CC1=N[C@@]2(CC[C@@H]3CN(S(=O)(=O)CC(C)C)C[C@@H]32)C(=O)N1CC1CC1 | 8.18 |
| CS(=O)(=O)N[C@@H]1CCN(Cc2ccncc2)[C@H]1Cc1cccnc1 | -12.8 |
| CS(=O)(=O)N[C@@H]1CCN(Cc2cccs2)[C@H]1Cc1cccnc1 | -18.1 |
| COCC(=O)N1CC[C@H]2C[C@H](c3nc(C)no3)O[C@@H]2C1 | -7.44 |
| Cn1cc2c(n1)C(COCC1CC1)CN(Cc1ccsc1)C2 (centres undefined) | -3.4 |
| CC(C)N(C)Cc1cnc2n1CCN(C(=O)c1cccs1)C2 | -15.9 |
| Cc1nc(CN2Cc3cn(C)nc3C(COCC3CC3)C2)cs1 (centres undefined) | 14.1 |

| SMILES | cytotoxicity at 70.5 h [%] |
| --- | --- |
| CN1CCN(Cc2cnc3n2CCN(C(=O)N2CCCC2)C3)CC1 | -14.4 |
| CCCNC(=O)c1nc2c(o1)CN(C(C)=O)C2 | -9.4 |
| Cn1ccc(C(=O)NC2CCC23CCN(C(=O)c2ccnnc2)CC3)c1 (centres undefined) | 27.1 |
| CCc1nc2c(N3CCC4(CC3)CC(=O)N(CC)C4)ncnc2o1 | -1.14 |
| CN(CCO)Cc1nnc(C2CCN(CC(C)(C)C)CC2)n1C | -4.91 |
| CN(Cc1ccc(-n2ccnc2)cc1)Cc1ncc[nH]1 | -6.87 |
| CC(=O)N[C@@H]1CN(S(=O)(=O)Cc2ccccc2)C[C@H]1C(C)C | -0.553 |
| CCCc1cc(CNc2cc(CCC)nc3ccnn23)on1 | 13.7 |
| O=C(c1ccc(-n2cnnc2)cc1Cl)N1CCCC(O)(CO)CC1 (centres undefined) | 15.6 |
| Cc1cnc(C)c(Oc2ccc(CN3CCCC3)cc2Cl)n1 | -4.06 |
| CN1CCCCC1c1nc(Cc2cccc(F)c2)no1 (centres undefined) | -7.67 |
| CC(=O)c1ccccc1NC(=O)CCN1CCSCC1 | 6.67 |
| OCC1(O)CCN(Cc2noc(-c3ccccc3)n2)CC1 | -6.37 |
| c1ccc(Cc2noc(CCNC3CCOC4(CCOCC4)C3)n2)cc1 (centres undefined) | 11.9 |
| Cc1cnc(C)c(N2CCCC(CC3CC3)(C(=O)O)C2)n1 (centres undefined) | -4.19 |
| C1CCC(c2nc3c(c(N4CCN5CCCC5C4)n2)CCNCC3)C1 (centres undefined) | -5.97 |
| CCN(CC)c1ncccc1CNCc1cc2ccccc2s1 | -2.63 |
| CCCc1ccc(CN2CCN(C(=O)CC(C)C)[C@@H]3CS(=O)(=O)C[C@@H]32)o1 | -9.85 |
| COC(C)(C)C(=O)N1Cc2cnc(C(C)(C)C)nc2C1 | -13.3 |
| Cc1ccc(N2CCC(c3cc(Cc4ccccc4)n[nH]3)CC2)nn1 | -9.6 |
| Cc1cnc(NC(=O)c2cccc(CN(C)Cc3ncccc3C)c2)s1 | 8.51 |
| CC(=O)Nc1ccc2nc(CN(C)Cc3noc(C)n3)ccc2c1 | -4.56 |

| SMILES | cytotoxicity at 70.5 h [%] |
| --- | --- |
| Cc1nonc1-c1nc(C(C)C)nn1-c1ccc2c(c1)OCO2 | -3.15 |
| CCN1CC2(CCN(C(=O)c3nc4cc(C)ccn4c3F)CC2)CC1=O | 24.7 |
| CC(Nc1nc(-c2ccccc2)nc2c1CCNCC2)c1cccnc1 (centres undefined) | 2.48 |
| CSCC(=O)N(C)Cc1cnn(-c2ccc(F)cc2)c1 | 3.1 |
| CS(=O)(=O)N1CCC2(CC1)c1ccccc1[C@@H](N1CCSCC1)[C@@H]2O | -0.762 |
| O=C(NCCn1cccc1)C(c1cccnc1)N1CCCC1 (centres undefined) | -0.962 |
| N#Cc1cccc(N2CCC(CO)(CCc3ccccc3)CC2)n1 | -5.51 |
| CCCOCCNc1nc2c(s1)c(C)nn2C | 24.8 |
| O=C1CC[C@H]2CN(c3ncccc3F)CC[C@H]2N1CCc1ccccc1 | 17.3 |
| CN(Cc1cc[nH]n1)C(=O)C1CC(=O)N(Cc2ccncc2)C1 (centres undefined) | -0.62 |
| CCC(=O)Nc1cccc(OCC(=O)N2C[C@H]3CC[C@H]2C3)c1 | -18.9 |
| O=C(NCc1ccco1)[C@H]1COC[C@H]2CN(Cc3ccoc3)C[C@H]21 | 13.6 |
| O=C(CC1CCCC1)N1CCn2cc(Cn3cccn3)nc2C1 | -11.5 |
| c1ccc(CN2CCC3(CC2)CC(Nc2nccs2)CO3)nc1 (centres undefined) | -8.19 |
| O=C(CC1CC1)N1CCn2cc(Cn3cccn3)nc2C1 | -15.8 |
| O=C([C@@H]1CCO[C@@H]2CCN(Cc3ccsc3)C[C@@H]21)N1CCCC1 | -16.1 |
| O=C(Cc1cccc(F)c1)N1CCn2cc(Cn3cccn3)nc2C1 | -10.7 |
| O=C(C1CCOCC1)N1CCc2ncc(CN3CCCC3)n2CC1 | -13.2 |
| CNC(=O)[C@@H]1CCO[C@@H]2CCN(Cc3ccsc3)C[C@H]21 | -14 |
| O=C(Nc1cnccn1)[C@@H]1CCO[C@@H]2CCN(Cc3ccsc3)C[C@@H]21 | -9.48 |
| Cc1noc(C)c1C(=O)N1CC[C@]2(C[C@@H](OCc3cccnc3)CO2)C1 | -9.24 |
| Cn1cc(CN2CC[C@H](O)[C@@H]2Cc2ccccc2)cn1 | -0.0718 |

| SMILES | cytotoxicity at 70.5 h [%] |
| --- | --- |
| Cc1ccc(CN2CC[C@@H](O)[C@@H]2Cc2cnn(C)c2)o1 | -10.4 |
| Cc1cc(C(=O)N2C[C@@H]3OCCN(CCN4CCCC4)[C@@H]3C2)c(C)o1 | -7.77 |
| CCN1C[C@H]2C[C@H](C(=O)Nc3ccccc3)[C@@H](C1)O2 | 16.4 |
| O=C(c1cc[nH]n1)N1CCc2onc(COc3cccnc3)c2C1 | -6.72 |
| CC(C)(C)CN1CCCC12CCN(S(=O)(=O)c1ccccc1)C2 (centres undefined) | -2.83 |
| CN1C(=O)C2(CCN(CC3CCC3)C2)c2ccccc21 (centres undefined) | 9.83 |
| O=C(NCc1ccccc1)c1nc2c(o1)CN(C(=O)c1cccnc1)C2 | -9 |
| Cn1ccnc1CN1CC[C@@H](NS(C)(=O)=O)[C@@H]1Cc1ccccc1 | -10.6 |
| CCC(CC)NC(=O)c1ncn2c1CN(CC)S(=O)(=O)c1ccccc1-2 | -12.8 |
| CC(C)CN1C(=O)C2(CCN(CC3CCOCC3)C2)c2ccccc21 (centres undefined) | -3.07 |
| CC(C)CS(=O)(=O)N1CCC2(CN(c3cccc(F)c3)C(=O)CN2C)C1 (centres undefined) | 19.6 |
| CC(C)OCc1ncn2c1CN(CC1CC1)CCC2 | 20.2 |
| CCOc1ncnc2c1CCN(Cc1csc(C)n1)CC2 | 18.8 |
| Cc1nc(CN2CCCn3cnc(COC(C)C)c3C2)cs1 | -2.95 |
| CNC(=O)C1Cn2ccnc2C2(CCN(Cc3nccs3)CC2)O1 (centres undefined) | 10.7 |
| CC(C)NC(=O)[C@H]1C[C@H]2OCC[C@H]2N(Cc2ccc3ccccc3n2)C1 | -0.387 |
| O=C(c1ccsc1)N1C[C@@H]2OCCN(CCN3CCCC3)[C@@H]2C1 | 16.6 |
| Cn1cc(CN2CC[C@@H](NS(C)(=O)=O)[C@@H]2Cc2cccnc2)cn1 | -12.3 |
| COCC(=O)N1CCn2c(CN3CCN(C)CC3)cnc2C1 | -3.31 |
| Cc1nc(CN2CCc3ncnc(-c4ccncc4)c3CC2)cs1 | 20 |
| CN(C)c1ccc(CNC2=NCCCN2)cc1 | 13.3 |
